Where “and” joins values, the source holds several entries; their conditions need not be identical. Identical values can stand only once. Inconclusive results and toxic doses are left out. Rule for the calls: active = survival T/C of 150% or more; inactive = T/C below 125% in these data.
System: C57BL/6 mice, intracerebral ependymoblastoma, median survival T/C
Assay: NCI In Vivo Anticancer Drug Screen. Data for tumor model Ependymoblastoma (intracerebral) in C57BL/6 mice
Conditions: endpoint: median survival time, higher = longer survival
Protocol: The antitumor activity of compounds was measured in mice bearing transplantable tumors. Survival or tumor size were measured and the results are expressed as the measurement made in the treated group (T) divided by the measurement made in the vehicle treated control group (C). The tumor model used in this assay is Ependymoblastoma (intracerebral) in C57BL/6 mice

[1] = dose: 0.5 mg/kg/injection, schedule: Q01DX005 (ip), vehicle: saline
[2] = dose: 1.0 mg/kg/injection, schedule: Q01DX005 (ip), vehicle: saline
[3] = dose: 2.0 mg/kg/injection, schedule: Q01DX005 (ip), vehicle: saline
[4] = dose: 8.0 mg/kg/injection, schedule: Q01DX005 (ip), vehicle: saline
[5] = dose: 8.0 mg/kg/injection, schedule: Q01DX005 (ip), vehicle: saline with Tween-80
[6] = dose: 16.0 mg/kg/injection, schedule: Q01DX005 (ip), vehicle: saline with Tween-80
[7] = dose: 32.0 mg/kg/injection, schedule: Q01DX005 (ip), vehicle: saline with Tween-80
[8] = dose: 64.0 mg/kg/injection, schedule: Q01DX005 (ip), vehicle: saline with Tween-80
[9] = dose: 4.0 mg/kg/injection, schedule: Q01DX005 (ip), vehicle: saline with Tween-80

Measured: T/C

N[C@@H](Cc1ccc(N(CCCl)CCCl)cc1)C(=O)O
inactive: dose: 0.5 mg/kg/injection, schedule: Q01DX001 (ip), vehicle: saline 103 % of control | [1] 106 % of control and 110 % of control | dose: 1.0 mg/kg/injection, schedule: Q01DX001 (ip), vehicle: saline 88 % of control | [2] 96 % of control and 109 % of control and 110 % of control | dose: 2.0 mg/kg/injection, schedule: Q01DX001 (ip), vehicle: saline 102 % of control | [3] 98 % of control and 108 % of control | dose: 4.0 mg/kg/injection, schedule: Q01DX005 (ip), vehicle: saline 111 % of control | dose: 8.0 mg/kg/injection, schedule: Q01DX001 (ip), vehicle: saline 119 % of control | [4] 100 % of control

O=c1[nH]c(=O)n([C@H]2CCCO2)cc1F
inactive: dose: 8.0 mg/kg/injection, schedule: Q01DX005 (ip), vehicle: Klucel (hydroxypropylcellulose) (HPC) 97 % of control and 98 % of control | [5] 90 % of control and 97 % of control | [4] 101 % of control and 111 % of control | dose: 16.0 mg/kg/injection, schedule: Q01DX005 (ip), vehicle: Klucel (hydroxypropylcellulose) (HPC) 100 % of control and 106 % of control and 112 % of control | [6] 103 % of control and 105 % of control | dose: 16.0 mg/kg/injection, schedule: Q01DX005 (ip), vehicle: saline 100 % of control and 110 % of control | dose: 32.0 mg/kg/injection, schedule: Q01DX005 (ip), vehicle: Klucel (hydroxypropylcellulose) (HPC) 98 % of control and 109 % of control and 114 % of control | [7] 102 % of control and 106 % of control | dose: 32.0 mg/kg/injection, schedule: Q01DX005 (ip), vehicle: saline 102 % of control and 109 % of control (2×) | dose: 64.0 mg/kg/injection, schedule: Q01DX005 (ip), vehicle: Klucel (hydroxypropylcellulose) (HPC) 100 % of control and 103 % of control and 108 % of control | [8] 104 % of control and 120 % of control | dose: 64.0 mg/kg/injection, schedule: Q01DX005 (ip), vehicle: saline 98 % of control and 111 % of control (2×) | dose: 128.0 mg/kg/injection, schedule: Q01DX005 (ip), vehicle: Klucel (hydroxypropylcellulose) (HPC) 112 % of control and 117 % of control | dose: 128.0 mg/kg/injection, schedule: Q01DX005 (ip), vehicle: saline with Tween-80 111 % of control and 114 % of control | dose: 128.0 mg/kg/injection, schedule: Q01DX005 (ip), vehicle: saline 102 % of control and 113 % of control and 119 % of control | dose: 256.0 mg/kg/injection, schedule: Q01DX005 (ip), vehicle: saline 106 % of control and 121 % of control

COC1C(CO)OC(n2cnc3c(=S)nc(N)[nH]c32)C1O (stereo not given)
inactive: dose: 100.0 mg/kg/injection, schedule: Q01DX005 (ip), vehicle: Klucel (hydroxypropylcellulose) (HPC) 91 % of control

CCOC(=O)C(CC(C)C)NC(=O)C(Cc1ccc(N(CCCl)CCCl)cc1)NC(C)=O (stereo not given)
inactive: dose: 1.0 mg/kg/injection, schedule: Q01DX005 (ip), vehicle: Klucel (hydroxypropylcellulose) (HPC) 103 % of control | dose: 2.0 mg/kg/injection, schedule: Q01DX005 (ip), vehicle: Klucel (hydroxypropylcellulose) (HPC) 94 % of control and 101 % of control | [9] 96 % of control and 109 % of control | [5] 110 % of control and 119 % of control | [6] 107 % of control | dose: 16.0 mg/kg/injection, schedule: Q#A X002 (ip), vehicle: Klucel (hydroxypropylcellulose) (HPC) 110 % of control | dose: 32.0 mg/kg/injection, schedule: Q01DX001 (ip), vehicle: Klucel (hydroxypropylcellulose) (HPC) 100 % of control | [7] 97 % of control and 116 % of control | dose: 32.0 mg/kg/injection, schedule: Q#A X002 (ip), vehicle: Klucel (hydroxypropylcellulose) (HPC) 96 % of control | dose: 64.0 mg/kg/injection, schedule: Q01DX001 (ip), vehicle: Klucel (hydroxypropylcellulose) (HPC) 97 % of control and 103 % of control | dose: 64.0 mg/kg/injection, schedule: Q01DX001 (oral), vehicle: Klucel (hydroxypropylcellulose) (HPC) 99 % of control and 113 % of control | [8] 91 % of control | dose: 64.0 mg/kg/injection, schedule: Q#A X002 (ip), vehicle: Klucel (hydroxypropylcellulose) (HPC) 94 % of control | dose: 128.0 mg/kg/injection, schedule: Q01DX001 (ip), vehicle: Klucel (hydroxypropylcellulose) (HPC) 94 % of control and 115 % of control | dose: 128.0 mg/kg/injection, schedule: Q01DX001 (oral), vehicle: Klucel (hydroxypropylcellulose) (HPC) 99 % of control and 110 % of control | dose: 128.0 mg/kg/injection, schedule: Q#A X002 (ip), vehicle: Klucel (hydroxypropylcellulose) (HPC) 99 % of control | dose: 256.0 mg/kg/injection, schedule: Q01DX001 (ip), vehicle: Klucel (hydroxypropylcellulose) (HPC) 91 % of control and 98 % of control | dose: 256.0 mg/kg/injection, schedule: Q01DX001 (oral), vehicle: Klucel (hydroxypropylcellulose) (HPC) 101 % of control and 110 % of control | dose: 512.0 mg/kg/injection, schedule: Q01DX001 (ip), vehicle: Klucel (hydroxypropylcellulose) (HPC) 86 % of control | dose: 512.0 mg/kg/injection, schedule: Q01DX001 (oral), vehicle: Klucel (hydroxypropylcellulose) (HPC) 104 % of control and 114 % of control | dose: 1024.0 mg/kg/injection, schedule: Q01DX001 (oral), vehicle: Klucel (hydroxypropylcellulose) (HPC) 100 % of control and 109 % of control

NC(=O)c1ncn(C2OC(CO)C(O)C2O)n1 (stereo not given)
inactive: dose: 20.0 mg/kg/injection, schedule: Q01DX005 (ip), vehicle: saline 108 % of control | dose: 40.0 mg/kg/injection, schedule: Q01DX005 (ip), vehicle: saline 105 % of control | dose: 80.0 mg/kg/injection, schedule: Q01DX005 (ip), vehicle: saline 108 % of control

COc1cccc2c1C(=O)c1c(O)c3c(c(O)c1C2=O)C[C@@](O)(/C(C)=N/NC(=O)c1ccccc1)C[C@@H]3OC1CC(N)C(O)C(C)O1 (stereo not given in full)
inactive: dose: 1.0 mg/kg/injection, schedule: Q01DX009 (ip), vehicle: saline 108 % of control | dose: 2.0 mg/kg/injection, schedule: Q01DX005 (ip), vehicle: saline with Tween-80 100 % of control | dose: 2.0 mg/kg/injection, schedule: Q01DX009 (ip), vehicle: saline 99 % of control | [9] 103 % of control | dose: 4.0 mg/kg/injection, schedule: Q01DX009 (ip), vehicle: saline 113 % of control

COc1cc([C@@H]2c3cc4c(cc3[C@@H](OC3OC5CO[C@@H](c6cccs6)OC5C(O)C3O)[C@H]3COC(=O)[C@H]23)OCO4)cc(OC)c1O (stereo not given in full)
inactive: dose: 0.06 mg/kg/injection, schedule: Q01DX005 (ip), vehicle: saline 101 % of control | dose: 0.12 mg/kg/injection, schedule: Q01DX005 (ip), vehicle: saline 95 % of control | dose: 0.25 mg/kg/injection, schedule: Q01DX005 (ip), vehicle: saline 97 % of control | [1] 99 % of control | [2] 104 % of control | dose: 1.0 mg/kg/injection, schedule: Q01DX005 (oral), vehicle: saline 101 % of control | [3] 114 % of control | dose: 4.0 mg/kg/injection, schedule: Q01DX005 (oral), vehicle: saline 104 % of control | dose: 8.0 mg/kg/injection, schedule: Q01DX005 (oral), vehicle: saline 100 % of control | dose: 16.0 mg/kg/injection, schedule: Q01DX005 (oral), vehicle: saline 95 % of control

— PubChem BioAssay AID222 (DTP/NCI, 2004)
